“And” between values parts separate entries of the source, which are not always exact repeats. Equal entries are not always repeated. Where two headings read alike, the source gives them in different places.
Legend:
[1] = molecular target: Taq polymerase (Thermus aquaticus, UniProt P19821); format: biochemical
[2] = molecular target: T1, Ventr (exo-) DNA polymerase (Thermococcus litoralis, UniProt P30317, D141A/DEL1082-1471/DEL495-1032/E143A); assay: PCR measuring maximal length of amplification; format: biochemical
T1 construct: purchased New England Biolabs
Protocol: (§1) 100ng of genomic DNA from Actinobacillus pleuropneumoniae was used as template. PCR cycles were as follows: 7 min at 95° C., then 30 cycles of polymerisation [45 s at 95° C., 45 s at 53° C., 1 min at 72°^C].

[3] = molecular target: T2, Taq DNA polymerase (Thermus aquaticus, UniProt P19821); format: biochemical
[4] = molecular target: T2, Taq DNA polymerase; conditions: 0.5 mM MnCl2, Equimolar dNTPs
Protocol: as §1

[5] = molecular target: T3, Ventr (exo-) polymerase (Thermococcus litoralis, UniProt P30317, D141A/DEL1082-1471/DEL495-1032/E143A); format: biochemical; conditions: for Amplification yield (% of C+): Ventr (exo-), 0.5 mM MnCl2
T3 construct: purchased New England Biolabs
Protocol: (§2) Control PCR condition: 2 units of Vent exo^−DNA polymerase were used in a 50 μL reaction volume containing 200 μM of each dNTPs, 10mM KCl, 10mM (NH4)2SO4, […] pH 8.8, 2mM MgSO4, 0.1% Triton™ X-100, 0.2 μM of each primers and 10ng of plasmid DNA. PCR were performed in a GeneAmp PCR system 9700 (Perkin-Elmer) as follows: 5 min at 95° C. (first denaturation), followed by 30 cycles of polymerisation [30 s at 95° C. (denaturation), 30 s at 65° C. (annealing) , 2 min at 72° C. (polymerisation)].
(§3) When a modified dNTPs ratio was used, fmal concentrations were 200 μM for dATP and dTTP and 800 μM for dCTP and dGTP.
Enzymatic activity of DNA polymerases has been determined by ethidium bromide staining of 1% agarose gel. Band intensity of 2 μL aliquots of amplicon issued from mutagenic PCR were compared to the intensity of bands obtained from several dilutions of standard PCR.
In order to assess the impact of the chemical stress induced by alcohols and urea on PCR, we measured the amplification yield was measured and compared it to that of a standard PCR. The size of a library generated by error-prone PCR is proportional to the amplification yield, therefore it is of a paramount importance to maintain the amplification yield as high as possible. Concentration of alcohol leading to a reduction in amplification yield was detected were chosen to determine their impact on amplified sequences. Such concentrations were defined as “critical” concentration of alcohol.

[6] = molecular target: T1, Ventr (exo-) DNA polymerase; format: biochemical
Protocol: The template used for PCR is the gene coding for MB-1 His (384 bp) (Grundy J. et al., (1998) Journal of Biotechnology, 63:9-15) cloned in the 6.6kb pMAL-c2 vector (New England Biolabs, cat no. M0257S). The template was obtained by plasmid purification of E. coli with XL-1 Blue (Stratagene) Miniprep protocol (Qiagen) and quantified using UV spectrometry.
as §2, §3
pMAL-c2 vector (New England Biolabs) was digested with SacI and HindIII endonucleases (New England Biolabs) and gel purified (1% agarose) using Qiaex gel extraction kit (Qiagen) and Agarose A from LAB MAT. The 384 bp PCR products were also gel purified. […] The purified products were then concatenated in a kination/ligation using T4 Polynucleotide kinase and T4 DNA ligase (New England Biolabs) for 3 hours at room temperature followed by a restriction digestion using SacI and HindIII endonucleases for 5 hours at 37° C. Then, the digested PCR products were purified using PCR purification kit (Qiagen) and ligated with pMAL-c2 vector using T4 DNA ligase at 16° C. overnight.
5 μL of ligation product mixed with 50 μL of E. coli XL-1 Blue hypercompetent cells were incubated on ice for 30 min, heatshocked at 42° C. for 45 sec and re-incubated on ice for 2 min. Then, 1mL of SOC medium was added and the mixture was incubated for 1 hour at 37° C. with shaking. Transformed Cells were then selected on LB agar plates containing 100 μg/mL ampicillin.
Plasmids from transformant colonies were purified with Qiaprep Spin miniprep kit (Qiagen) and digested with SacI/HindIII to confirm the presence of the 384 bp fragment corresponding to MB-1 His gene. Plasmids were then sequenced by the dye-terminator method (Service d'analyse et de synthèse, Université Laval). Complete sequences were analysed with LFASTA software (Chao K. M. (1998), Comput. Appl. Biosci., 8:481-487), allowing for comparison of control and mutated DNA. Mutation rate and mutation types were calculated from such a comparison.

[7] = molecular target: Deep Ventr (exo-) polymerase (Pyrococcus sp., UniProt Q51334, D141A/DEL493-1029/E143A); format: biochemical, Pyrococcus species GB-D
[8] = Taq, 0.5 mM MnCl2, Equimolar dNTPs
[9] = Taq, 0.5 mM MnCl2, Equimolar dNTPs, % of total mutations
[10] = Ventr (exo-), 0.5 mM MnCl2, AG/CT = 1/4
[11] = Ventr (exo-), 0.5 mM MnCl2, AG/CT = 1/4, % of total mutations
[12] = Ventr (exo-), 0.5 mM MnCl2, AT/GC = 1/4
[13] = Ventr (exo-), 0.5 mM MnCl2, AT/GC = 1/4, % of total mutations
[14] = Ventr (exo-), 0.5 mM MnCl2, Equimolar dNTPs
[15] = Ventr (exo-), 0.5 mM MnCl2, Equimolar dNTPs, % of total mutations
[16] = Ventr (exo-), 0.5 mM MnCl2, Equimolar dNTPs, listed as manganese
[17] = Ventr (exo-) polymerase, concentration leading to reduction in amplification yield
[18] = Taq polymerase, concentration leading to reduction in amplification yield
[19] = concentration leading to reduction in amplification yield

Deep Ventr (exo-) polymerase, sequence (Q51334 other isoform, or with tags, fused parts or gaps D141A/E143A/DEL493-1029): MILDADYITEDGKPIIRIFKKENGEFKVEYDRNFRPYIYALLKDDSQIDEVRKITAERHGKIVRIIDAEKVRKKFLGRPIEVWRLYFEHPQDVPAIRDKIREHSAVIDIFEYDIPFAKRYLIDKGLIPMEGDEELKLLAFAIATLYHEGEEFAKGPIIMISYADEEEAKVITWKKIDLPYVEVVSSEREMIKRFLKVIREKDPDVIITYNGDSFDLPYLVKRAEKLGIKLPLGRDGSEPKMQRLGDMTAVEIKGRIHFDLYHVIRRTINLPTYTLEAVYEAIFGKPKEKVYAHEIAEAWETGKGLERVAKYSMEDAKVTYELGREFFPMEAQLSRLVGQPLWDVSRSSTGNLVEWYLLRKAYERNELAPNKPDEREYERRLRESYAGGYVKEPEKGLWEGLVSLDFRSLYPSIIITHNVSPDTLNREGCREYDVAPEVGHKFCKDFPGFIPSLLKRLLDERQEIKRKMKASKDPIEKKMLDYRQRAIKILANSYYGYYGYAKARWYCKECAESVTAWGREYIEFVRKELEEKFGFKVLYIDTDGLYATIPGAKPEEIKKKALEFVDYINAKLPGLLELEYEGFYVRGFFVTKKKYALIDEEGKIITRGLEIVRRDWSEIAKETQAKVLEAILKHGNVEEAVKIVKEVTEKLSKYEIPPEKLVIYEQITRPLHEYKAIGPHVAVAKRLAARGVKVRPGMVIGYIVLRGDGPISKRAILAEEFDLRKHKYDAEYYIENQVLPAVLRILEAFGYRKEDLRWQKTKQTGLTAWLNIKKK
T3 sequence (P30317 other isoform, or with tags, fused parts or gaps D141A/E143A/DEL495-1032/DEL1082-1471): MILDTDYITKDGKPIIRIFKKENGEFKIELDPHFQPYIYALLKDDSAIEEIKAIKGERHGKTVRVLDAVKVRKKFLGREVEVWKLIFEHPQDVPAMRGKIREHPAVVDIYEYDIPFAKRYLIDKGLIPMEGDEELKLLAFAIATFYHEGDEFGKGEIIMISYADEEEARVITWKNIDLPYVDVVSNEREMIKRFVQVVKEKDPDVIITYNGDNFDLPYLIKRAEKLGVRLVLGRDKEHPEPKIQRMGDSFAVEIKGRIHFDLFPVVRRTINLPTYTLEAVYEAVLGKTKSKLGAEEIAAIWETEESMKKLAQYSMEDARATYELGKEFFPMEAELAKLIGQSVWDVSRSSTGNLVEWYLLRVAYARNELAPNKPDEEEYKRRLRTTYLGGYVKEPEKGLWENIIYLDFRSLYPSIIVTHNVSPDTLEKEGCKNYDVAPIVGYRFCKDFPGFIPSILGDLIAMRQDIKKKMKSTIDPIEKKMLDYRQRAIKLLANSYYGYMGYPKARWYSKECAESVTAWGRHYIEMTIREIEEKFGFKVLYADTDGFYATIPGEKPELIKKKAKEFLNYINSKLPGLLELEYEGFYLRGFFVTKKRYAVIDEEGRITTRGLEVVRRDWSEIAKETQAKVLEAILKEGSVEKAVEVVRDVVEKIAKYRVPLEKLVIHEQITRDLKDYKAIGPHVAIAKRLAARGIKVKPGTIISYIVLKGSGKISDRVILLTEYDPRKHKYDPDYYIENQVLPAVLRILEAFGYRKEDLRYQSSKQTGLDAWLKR
T1 sequence (P30317 other isoform, or with tags, fused parts or gaps D141A/E143A/DEL495-1032/DEL1082-1471): as above
Taq polymerase, sequence (P19821 whole entry): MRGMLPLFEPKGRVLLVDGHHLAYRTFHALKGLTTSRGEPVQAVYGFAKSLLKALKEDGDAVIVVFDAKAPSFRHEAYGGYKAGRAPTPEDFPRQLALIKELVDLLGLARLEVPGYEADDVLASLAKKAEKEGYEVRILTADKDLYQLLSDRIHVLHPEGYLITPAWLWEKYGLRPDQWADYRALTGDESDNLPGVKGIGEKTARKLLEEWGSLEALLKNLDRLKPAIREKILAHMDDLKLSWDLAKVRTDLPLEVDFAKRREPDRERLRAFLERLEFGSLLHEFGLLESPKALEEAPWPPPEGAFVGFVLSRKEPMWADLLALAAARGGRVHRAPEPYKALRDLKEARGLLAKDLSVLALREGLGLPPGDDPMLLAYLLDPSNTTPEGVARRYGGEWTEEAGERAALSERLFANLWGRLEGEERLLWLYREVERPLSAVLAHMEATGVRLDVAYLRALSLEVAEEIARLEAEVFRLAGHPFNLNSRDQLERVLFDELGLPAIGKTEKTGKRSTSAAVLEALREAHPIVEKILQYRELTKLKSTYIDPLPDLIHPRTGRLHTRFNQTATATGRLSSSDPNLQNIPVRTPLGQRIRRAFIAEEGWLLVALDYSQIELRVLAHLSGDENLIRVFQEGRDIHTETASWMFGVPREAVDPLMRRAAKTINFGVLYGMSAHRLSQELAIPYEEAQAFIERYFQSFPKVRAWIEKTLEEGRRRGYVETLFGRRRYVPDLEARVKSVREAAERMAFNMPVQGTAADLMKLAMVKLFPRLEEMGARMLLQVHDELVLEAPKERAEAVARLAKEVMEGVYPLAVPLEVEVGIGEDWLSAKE
T2 sequence (P19821 whole entry): as above

## manganese chloride [MnCl2]
[1]; [8]
  Amplification yield (% of C+): 75 % of C+
[2]; 0.5 mM MnCl2, AG/CT = 1/4
  Maximal lenght of amplification: 0.8 kb
[2]; 0.5 mM MnCl2, AT/GC = 1/4
  Maximal lenght of amplification: 1.6 kb
[2]; 0.5 mM MnCl2, Equimolar dNTPs
  Maximal lenght of amplification: 0.8 kb
[3]; [8]
  Deletion Frequency: 0.04%
  Mutation Frequency: 8.48%
[3]; [9]
  Bias indicator A, T turns N: 72%
  Bias indicator G, C turns N: 24%
  Bias indicator N turns A, T: 43%
[4]
  Maximal lenght of amplification: 0.4 kb
[5]; AG/CT = 1/4
  Amplification yield (% of C+): 75 % of C+
[5]; AT/GC = 1/4
  Amplification yield (% of C+): 75 % of C+
[5]; Equimolar dNTPs
  Amplification yield (% of C+): 75 % of C+
[6]; [10]
  Deletion Frequency: 0.03%
  Mutation Frequency: 2.30%
[6]; [11]
  Bias indicator A, T turns N: 30%
  Bias indicator G, C turns N: 67%
  Bias indicator N turns A, T: 73%
[6]; [12]
  Deletion Frequency: 0.00%
  Mutation Frequency: 0.52%
[6]; [13]
  Bias indicator A, T turns N: 88%
  Bias indicator G, C turns N: 12%
  Bias indicator N turns A, T: 25%
[6]; [14]
  Deletion Frequency: 0.00%
  Mutation Frequency: 3.70%
[6]; [15]
  Bias indicator A, T turns N: 23%
  Bias indicator G, C turns N: 77%
  Bias indicator N turns A, T: 83%
[6]; [16]
  Deletion Frequency: without insertion or deletion
  Mutation Frequency: 3.7%

## CC(C)O [Isopropanol]
[5]; [17]
  Critical concentration: 10.0 % v/v

## NC(N)=O [Urea]
[1]; [18]
  Critical concentration: 1.2 % v/v
[1]; Taq polymerase, in molar
  Critical concentration: (0.20 M)
[3]; Taq, critical concentration of urea, more than 2000 nucleotides sequenced
  mutation detected in PCR: did not detect mutation
[5]; [17]
  Critical concentration: 1.5 % v/v
[5]; Ventr (exo-) polymerase, in molar
  Critical concentration: (0.25 M)
[6]; Ventr (exo-), critical concentration of urea, more than 2000 nucleotides sequenced
  mutation detected in PCR: did not detect mutation
[7]; [19]
  Critical concentration: 1.5 % v/v
[7]; in molar
  Critical concentration: (0.25 M)

## Butanol
[1]; [18]
  Critical concentration: 1.0 % v/v
[5]; [17]
  Critical concentration: 4.0 % v/v
[7]; [19]
  Critical concentration: 6.0 % v/v

## CCCO [Propanol, 1-propanol]
[1]
  Amplification yield (% of C+): 50 % of C+
  Critical concentration: 2.5 % v/v
  polymerisation activity: no polymerisation activity
[3]
  Deletion Frequency: 0.04%
  Mutation Frequency: 0.13%
  mutations found: 3
[5]
  Critical concentration: 8.0 % v/v
  polymerisation activity: no polymerisation activity
[6]
  Bias indicator A, T turns N: 25% and 24% and 14%
  Bias indicator G, C turns N: 67% and 62% and 86%
  Bias indicator N turns A, T: 67% and 71%
  Mutation Frequency: 0.98% and 0.27% and 0.58%
  mutation of guanines and cytosines, of total mutations: 67%
[7]; [19]
  Critical concentration: 8.0 % v/v

From US20050153303A1, “Method of mutagenic chain reaction” (priority 2003, published 2005)
